Counter-ions that a name gives are not always drawn.

In assay [1] the test system is patients of benign prostatic hyperplasia who are subject to surgical therapy (overall severity severe). Briefly: Placebo-controlled, parallel groups-comparing double blind trial, 12 weeks oral administration (I-PSS total score, QOL score). It counts as in vivo. On the procedure: Based on the results of a placebo-controlled, parallel groups-comparing double blind trial carried out in patients of benign prostatic hyperplasia, clinical effects of silodosin and tamsulosin hydrochloride in patients who are subject to surgical therapy were evaluated. As the patients who are subject to surgical therapy, patients whose overall severity before administration was “severe” based on the criteria for judging overall severity (Non-patent Reference 3) were extracted.
Objects: 147 patients who are subject to surgical therapy for benign prostatic hyperplasia
Administration method: oral administration for 12 weeks
Administered groups: Silodosin group (4 mg silodosin/once, twice a day, 63 patients), Tamsulosin group (0.2 mg tamsulosin hydrochloride, once a day, 55 patients) and Placebo group (placebo drug, 29 patients).
Primary endpoints: I-PSS total score, QOL score
Criteria for judging overall severity: in the severity of respective judging items shown in Table 1, the overall severity is regarded as “severe” when “severe” is present in 2 items or more. In this connection, the Qmax in the table means maximum flow rate (mL/second), RU means residual urine volume (mL) and PV means estimated prostate volume (mL) by ultrasonic tomography.
I-PSS items questioned • (1) Sensation of residual urine
The scores of (1) to (6) are as follows.
Not at all: 0 point, less than 1 time in 5: 1 point, less than 1 time in 2: 2 points, about 1 time in 2: 3 points, more than 1 time in 2: 4 points, almost always: 5 points. • (7) Nocturia
None: 0 point, 1 time: 1 point, 2 times: 2 points, 3 times: 3 points, 4 times: 4 points, 5 times or more: 5 points.
Very satisfied 0 point, satisfied: 1 point, generally satisfied: 2 points, neither satisfied nor unsatisfied: 3 points, a little unsatisfied: 4 points, unsatisfied: 5 points, very unsatisfied: 6 points.
Regarding the case of patients whose overall severity before administration was severe based on the criteria for judging overall severity (Non-patent Reference 3), changes in I-PSS total score and QOL score at the final evaluation were compared. The results are shown in Table 2 and Table 3, respectively.
Next, the effect of each administration group to improve the severity of I-PSS total score was evaluated in the patients of benign prostatic hyperplasia whose overall severity before administration was severe.

Assay [2] has as its system patients of benign prostatic hyperplasia who are subject to surgical therapy (overall severity moderate and severe). In words: Long-term administration test, 52 weeks (maximum flow rate Qmax). It counts as in vivo. As to conditions: 4 mg silodosin twice a day oral. The source says:
Based on the results from a long-term administration test in patients of benign prostatic hyperplasia, effects of silodosin on objective symptoms of patients who are subject to surgical therapy were examined. As the patients who are subject to surgical therapy, patients whose overall severities before administration were “moderate” and “severe” according to the criteria for judging overall severity described in the above Table 1 were extracted.
Objects: 229 patients who are subject to surgical therapy for benign prostatic, hyperplasia
Analyzed groups: 101 severe patients (reduced to 2 mg/once in 9 cases among them), 128 moderate patients (reduced to 2 mg/once in 17 cases among them)

[3] abbreviates: severity of I-PSS total score, severe patients.
Setting [4] is: overall severity before administration severe, oral, silodosin 4 mg twice a day, tamsulosin hydrochloride 0.2 mg once a day.

With `C[C@H](Cc1cc2c(c(C(N)=O)c1)N(CCCO)CC2)NCCOc1ccccc1OCC(F)(F)F` [Silodosin, (−)-1-(3-hydroxypropyl)-5-((2R)-2-{[2-({2-[(2,2,2-trifluoroethyl)oxy]phenyl}oxy)ethyl]amino}propyl)-2,3-dihydro-1H-indole-7-carboxamide], in assay [1] (setting [3]), the “Severity of subjective symptoms at the end, Mild (0-7), number of patients” value was 24; the “Severity of subjective symptoms at the end, Moderate (8-19), % of patients” value is listed as “(52.4%)”; the “Severity of subjective symptoms at the end, Moderate (8-19), number of patients” value is reported as 33; the “Severity of subjective symptoms at the end, Severe (20-35), % of patients” value is given as “(9.5%)”. The “Severity of subjective symptoms at the end, Severe (20-35), number of patients” value in assay [1] (setting [3]) was determined as 6. In assay [2] (Moderate group), the “Maximum flow rate (Qmax), change after 52 weeks (mean ± SD)” value was found to be 2.3 ± 5.3 mL/s. In assay [2] (Moderate group, listed as silodosin), the “Maximum flow rate (Qmax), change after 52 weeks (mean ± SD)” value amounted to 2.3 mL/s. Also, the “Maximum flow rate (Qmax), change after 52 weeks (mean ± SD)” value in assay [2] (Severe group) is 3.2 ± 4.9 mL/s. Moreover, the “Maximum flow rate (Qmax), change after 52 weeks (mean ± SD)” value in assay [2] (Severe group, listed as silodosin) is 3.2 mL/s.
`CCOc1ccccc1OCCN[C@H](C)Cc1ccc(OC)c(S(N)(=O)=O)c1` [Tamsulosin, tamsulosin hydrochloride]: in assay [1] (setting [4]), the “Change in I-PSS at the end Mean ± standard deviation” value is listed as −8.6 ± 6.2^3) N.S and the “Change in QOL at the end Mean ± SD” value is on record as −1.5 ± 1.3^3) N.S. Further, in assay [1] (setting [3]), the “Severity of subjective symptoms at the end, Mild (0-7), % of patients” value is on record as “(21.8%)”; the “Severity of subjective symptoms at the end, Mild (0-7), number of patients” value was found to be 12; the “Severity of subjective symptoms at the end, Moderate (8-19), % of patients” value was “(61.8%)”; the “Severity of subjective symptoms at the end, Moderate (8-19), number of patients” value amounted to 34. Further, in assay [1] (setting [3]), the “Severity of subjective symptoms at the end, Severe (20-35), % of patients” value is recorded as “(16.4%)” and the “Severity of subjective symptoms at the end, Severe (20-35), number of patients” value was 9.
